Experimental data taken from ChEMBL document CHEMBL1201862, “PubChem BioAssay data set” (2004).
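Compound exposure: 48 hours, 5 concentrations, 96-well plates. GI50 marks 50% less growth.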 Calls of active or inactive are those of the source. Cut-off read from the data, not from the text of the source: active = GI50 up to about 1.1 µM and inactive = higher.

How the values were obtained:
Test in all cases: DTP human tumour cell line panel, 48 h
A498 = test system: A498
LXFL 529 = test system: LXFL 529
CAKI-1 = test system: CAKI-1
SN12C = test system: SN12C
SNB-19 = test system: SNB-19
LOX IMVI = test system: LOX IMVI
HOP-92 = test system: HOP-92
M19-MEL = test system: M19-MEL
HCT-15 = test system: HCT-15
NCI-H460 = test system: NCI-H460
CCRF-CEM = test system: CCRF-CEM
RPMI-8226 = test system: RPMI-8226
SF-295 = test system: SF-295
HOP-18 = test system: HOP-18
SK-MEL-5 = test system: SK-MEL-5
HOP-62 = test system: HOP-62
HCC 2998 = test system: HCC 2998
NCI-H23 = test system: NCI-H23
SK-MEL-2 = test system: SK-MEL-2
SNB-75 = test system: SNB-75
NCI-H522 = test system: NCI-H522
COLO 205 = test system: COLO 205
DMS-273 = test system: DMS-273
ACHN = test system: ACHN
HL-60 = test system: HL-60
UO-31 = test system: UO-31
UACC-62 = test system: UACC-62
HCT-116 = test system: HCT-116
DMS-114 = test system: DMS-114
HT-29 = test system: HT-29
OVCAR-5 = test system: OVCAR-5
KM-20L2 = test system: KM-20L2
M14 = test system: M14
U-251 = test system: U-251
786-0 = test system: 786-0
SK-MEL-28 = test system: SK-MEL-28
K562 = test system: K562
OVCAR-8 = test system: OVCAR-8
SNB-78 = test system: SNB-78
TK-10 = test system: TK-10
SK-OV-3 = test system: SK-OV-3
IGROV-1 = test system: IGROV-1
EKVX = test system: EKVX
A549 = test system: A549
Malme-3M = test system: Malme-3M
OVCAR-3 = test system: OVCAR-3
SF-268 = test system: SF-268
KM12 = test system: KM12
SF-539 = test system: SF-539
DLD-1 = test system: DLD-1
UACC-257 = test system: UACC-257
SW-620 = test system: SW-620
NCI-H226 = test system: NCI-H226
MDA-N = test system: MDA-N
MOLT-4 = test system: MOLT-4
BT-549 = test system: BT-549
OVCAR-4 = test system: OVCAR-4
RXF 393 = test system: RXF 393
Hs-578T = test system: Hs-578T
SR = test system: SR
MCF7 = test system: MCF7
MDA-MB-435 = test system: MDA-MB-435
MDA-MB-231 = test system: MDA-MB-231
DU-145 = test system: DU-145
T47D = test system: T47D
NCI/ADR-RES = test system: NCI/ADR-RES
PC-3 = test system: PC-3

O=C1Cc2nc(CO)c(CO)c(CO)c2CO1
GI50 (A498): > 100 µM (inactive)
GI50 (LXFL 529): > 100 µM (inactive)
GI50 (CAKI-1): > 100 µM (inactive)
GI50 (SN12C): > 100 µM (inactive)
GI50 (SNB-19): > 100 µM (inactive)
GI50 (LOX IMVI): > 100 µM (inactive)
GI50 (HOP-92): > 100 µM (inactive)
GI50 (M19-MEL): > 100 µM (inactive)
GI50 (HCT-15): > 100 µM
GI50 (NCI-H460): > 100 µM (inactive)
GI50 (CCRF-CEM): > 100 µM (inactive)
GI50 (RPMI-8226): > 100 µM (inactive)
GI50 (SF-295): > 100 µM (inactive)
GI50 (HOP-18): > 100 µM (inactive)
GI50 (SK-MEL-5): > 100 µM (inactive)
GI50 (HOP-62): > 100 µM (inactive)
GI50 (HCC 2998): > 100 µM (inactive)
GI50 (NCI-H23): > 100 µM (inactive)
GI50 (SK-MEL-2): > 100 µM (inactive)
GI50 (SNB-75): > 100 µM (inactive)
GI50 (NCI-H522): > 100 µM (inactive)
GI50 (COLO 205): > 100 µM (inactive)
GI50 (DMS-273): > 100 µM (inactive)
GI50 (ACHN): > 100 µM (inactive)
GI50 (HL-60): > 100 µM (inactive)
GI50 (UO-31): > 100 µM (inactive)
GI50 (UACC-62): > 100 µM (inactive)
GI50 (HCT-116): > 100 µM (inactive)
GI50 (DMS-114): > 100 µM (inactive)
GI50 (HT-29): > 100 µM (inactive)
GI50 (OVCAR-5): > 100 µM (inactive)
GI50 (KM-20L2): > 100 µM (inactive)
GI50 (M14): > 100 µM (inactive)
GI50 (U-251): > 100 µM (inactive)
GI50 (786-0): > 100 µM (inactive)
GI50 (SK-MEL-28): > 100 µM (inactive)
GI50 (K562): > 100 µM (inactive)
GI50 (OVCAR-8): > 100 µM (inactive)
GI50 (SNB-78): > 100 µM (inactive)
GI50 (TK-10): > 100 µM (inactive)
GI50 (SK-OV-3): > 100 µM (inactive)
GI50 (IGROV-1): > 100 µM (inactive)
GI50 (EKVX): > 100 µM (inactive)
GI50 (A549): > 100 µM (inactive)
GI50 (Malme-3M): > 100 µM (inactive)
GI50 (OVCAR-3): > 100 µM (inactive)
GI50 (SF-268): > 100 µM (inactive)
GI50 (KM12): > 100 µM (inactive)
GI50 (SF-539): > 100 µM (inactive)
GI50 (DLD-1): > 100 µM (inactive)
GI50 (UACC-257): > 100 µM (inactive)
GI50 (SW-620): > 100 µM (inactive)

O=C(CCN1CCCCC1)Nc1ccc2c(c1)C(=O)c1ccc(NC(=O)CCN3CCCCC3)cc1C2=O
GI50 (A498): 13.7 µM (inactive)
GI50 (LXFL 529): 1.88 µM (inactive)
GI50 (NCI-H226): 15.6 µM (inactive)
GI50 (CAKI-1): 12.6 µM (inactive)
GI50 (SN12C): 5.81 µM (inactive)
GI50 (SNB-19): 4.48 µM (inactive)
GI50 (LOX IMVI): 1.75 µM (inactive)
GI50 (MDA-N): 1.65 µM (inactive)
GI50 (HOP-92): 15.4 µM (inactive)
GI50 (M19-MEL): 43.1 µM (inactive)
GI50 (HCT-15): 2.59 µM
GI50 (NCI-H460): 1.57 µM (inactive)
GI50 (CCRF-CEM): 2.37 µM (inactive)
GI50 (RPMI-8226): 4.43 µM (inactive)
GI50 (SF-295): 5.22 µM (inactive)
GI50 (MOLT-4): 3.83 µM (inactive)
GI50 (HOP-18): 17 µM (inactive)
GI50 (SK-MEL-5): 5.71 µM (inactive)
GI50 (HOP-62): 2.12 µM (inactive)
GI50 (BT-549): 14.6 µM (inactive)
GI50 (HCC 2998): 4.45 µM (inactive)
GI50 (NCI-H23): 6.05 µM (inactive)
GI50 (SK-MEL-2): 5.16 µM (inactive)
GI50 (SNB-75): 3.82 µM (inactive)
GI50 (NCI-H522): 16.9 µM (inactive)
GI50 (COLO 205): 10.9 µM (inactive)
GI50 (DMS-273): 1.71 µM (inactive)
GI50 (ACHN): 11.6 µM (inactive)
GI50 (OVCAR-4): 3.5 µM (inactive)
GI50 (HL-60): 2.79 µM (inactive)
GI50 (UO-31): 12.4 µM (inactive)
GI50 (UACC-62): 19.9 µM (inactive)
GI50 (RXF 393): 3.85 µM (inactive)
GI50 (HCT-116): 1.71 µM (inactive)
GI50 (DMS-114): 17.6 µM (inactive)
GI50 (Hs-578T): 11.7 µM (inactive)
GI50 (HT-29): 3.24 µM (inactive)
GI50 (OVCAR-5): 16.5 µM (inactive)
GI50 (KM-20L2): 18 µM (inactive)
GI50 (M14): 5.73 µM (inactive)
GI50 (U-251): 4.98 µM (inactive)
GI50 (786-0): 1.61 µM (inactive)
GI50 (SK-MEL-28): 17.5 µM (inactive)
GI50 (K562): 2.25 µM (inactive)
GI50 (OVCAR-8): 5.57 µM (inactive)
GI50 (SNB-78): 15.3 µM (inactive)
GI50 (SR): 2.47 µM (inactive)
GI50 (MCF7): 2.31 µM (inactive)
GI50 (TK-10): 8.34 µM (inactive)
GI50 (SK-OV-3): 13.2 µM (inactive)
GI50 (IGROV-1): 3.61 µM (inactive)
GI50 (EKVX): 15.6 µM (inactive)
GI50 (A549): 4.84 µM (inactive)
GI50 (MDA-MB-435): 1.82 µM (inactive)
GI50 (Malme-3M): 10.5 µM (inactive)
GI50 (OVCAR-3): 8.11 µM (inactive)
GI50 (MDA-MB-231): 2.04 µM (inactive)
GI50 (SF-268): 7.96 µM (inactive)
GI50 (DU-145): 14 µM (inactive)
GI50 (KM12): 1.62 µM (inactive)
GI50 (SF-539): 2.61 µM (inactive)
GI50 (DLD-1): 2.92 µM (inactive)
GI50 (T47D): 16.5 µM (inactive)
GI50 (UACC-257): 16.3 µM (inactive)
GI50 (SW-620): 2.1 µM (inactive)
GI50 (NCI/ADR-RES): 10.9 µM (inactive)
GI50 (PC-3): 2.26 µM (inactive)
